Measured values: US6737383B1, “Herbicidal oxadiazolidines” (priority 1999, dated 2004)

Legend:
crabgrass = assay: Test B pre/postemergence crabgrass; format: in vivo, Digitaria sanguinalis; conditions: for Crabgrass plant response rating (0 to 10 scale): 0 is no effect
Summary of the method: (§1)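 Herbicidal effect was estimated by eye on a ten-point control scale after plants spent twelve to sixteen days in a greenhouse following soil or foliar treatment. Foliar sprays targeted plants at one to four leaves; all doses were formulated in a non-phytotoxic solvent with surfactant.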

purple nutsedge = assay: Test B pre/postemergence purple nutsedge; format: in vivo, Cyperus rotundus; conditions: for Nutsedge plant response rating (0 to 10 scale): 0 is no effect
Summary of the method: as §1

duck salad = assay: Test B flood test duck salad; format: in vivo, Heteranthera limosa
Summary of the method: (§2)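 Each value is a visual injury score relative to controls, with 10 meaning complete control and 0 no effect. Evaluation took place twelve to sixteen days after the 2-leaf-stage plants were treated and kept in the greenhouse.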

bamyardgrass = assay: Test B flood test barnyardgrass; format: in vivo, Echinochloa crus-galli
Summary of the method: as §2

winter wheat [1] = assay: Test E winter wheat; format: in vivo, Triticum aestivum; conditions: Postemergence, 0 to 100 scale
Summary of the method: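 Greenhouse-grown plants are treated (postemergence: 1- to 4-leaf stage, sandy loam/potting mix 60:40), then evaluated visually versus untreated controls some 21 to 28 days later.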

blackgrass = assay: Test E blackgrass; format: in vivo, Alopecurus myosuroides; conditions: Preemergence; for Blackgrass plant response rating (0 to 100 scale): Rate 250 g/ha
green foxtail = assay: Test E green foxtail; format: in vivo, Setaria viridis; conditions: Preemergence; for Green foxtail plant response rating (0 to 100 scale): Rate 250 g/ha
Italian ryegrass = assay: Test E Italian ryegrass; format: in vivo, Lolium multiflorum; conditions: Preemergence; for I. Ryegrass plant response rating (0 to 100 scale): Rate 250 g/ha
winter wheat [2] = assay: Test E winter wheat; format: in vivo, Triticum aestivum; conditions: Preemergence; for Wheat (winter) plant response rating (0 to 100 scale): Rate 250 g/ha
wild oat = assay: Test E wild oat; format: in vivo, Avena fatua; conditions: Preemergence; for Wild oat plant response rating (0 to 100 scale): Rate 250 g/ha
winter barley = assay: Test E winter barley; format: in vivo, Hordeum vulgare; conditions: Preemergence; for Barley (winter) plant response rating (0 to 100 scale): Rate 250 g/ha
[3] = Preemergence, Rate 62 g/ha, scale of 0 to 10 where 0 is no effect and 10 is complete control
[4] = Preemergence, Rate 125 g/ha, 10 is complete control
[5] = Preemergence, Rate 250 g/ha, scale 0 to 10, 0 is no effect, 10 is complete control
[6] = Preemergence, Rate 500 g/ha, scale 0 to 10 (0 no effect, 10 complete control)
[7] = Rate 62 g/ha, Postemergence, scale of 0 to 10 where 0 is no effect and 10 is complete control
[8] = Rate 125 g/ha, Postemergence, scale 0 to 10
[9] = Rate 500 g/ha, Postemergence, scale 0 to 10
[10] = Rate 62 g/ha, headed Pre-emergence (flood test species), scale 0 to 10 (0 no effect, 10 complete control)
[11] = Rate 125 g/ha, Pre-emergence, flood test species, scale 0 to 10 where 0 is no effect and 10 is complete control
[12] = Rate 250 g/ha, Pre-emergence, flood-test species, scale 0 to 10, 0 is no effect, 10 is complete control
[13] = Rate 500 g/ha, headed Pre-emergence (flood test species), scale 0 to 10 (0 no effect, 10 complete control)
[14] = Rate 500 g/ha, 0 is no effect, 100 is complete control
[15] = Rate 125 g/ha, 0 to 100 scale (0 no effect, 100 complete control)
[16] = Rate 500 g/ha, 0 to 100 scale where 0 is no effect and 100 is complete control
[17] = Preemergence, Rate 500 g/ha, scale of 0 to 10 where 0 is no effect and 10 is complete control
[18] = Rate 500 g/ha, Pre-emergence, flood test species, scale 0 to 10 (0 no effect, 10 complete control)
[19] = Rate 1000 g/ha, 0 to 100 scale where 0 is no effect and 100 is complete control

## Cc1nc(C)c(Cn2c(=O)on(C(=O)N(c3ccc(Cl)cc3)C(C)C)c2=O)s1 [Compound 191]
crabgrass; [3]
  Crabgrass plant response rating: 0
crabgrass; [4]
  Crabgrass plant response rating (0 to 10 scale): 3
crabgrass; [5]
  Crabgrass plant response rating: 8
crabgrass; [6]
  Crabgrass plant response rating: 8
crabgrass; [7]
  Crabgrass plant response rating: 2
crabgrass; [8]
  Crabgrass plant response rating: 2
crabgrass; Rate 250 g/ha, Postemergence
  Plant response rating (0 to 10; 0 is no effect, 10 is complete control), Crabgrass: 3
crabgrass; [9]
  Crabgrass plant response rating: 6
Purple nutsedge; [3]
  Nutsedge plant response rating: 0
Purple nutsedge; [4]
  Nutsedge plant response rating (0 to 10 scale): 0
Purple nutsedge; [5]
  Nutsedge plant response rating: 0
Purple nutsedge; [6]
  Nutsedge plant response rating: 0
Purple nutsedge; [7]
  Nutsedge plant response rating: 0
Purple nutsedge; [8]
  Nutsedge plant response rating: 0
Purple nutsedge; Rate 250 g/ha, Postemergence
  Plant response rating (0 to 10; 0 is no effect, 10 is complete control), Nutsedge: 0
Purple nutsedge; [9]
  Nutsedge plant response rating: 0
Duck salad; [10]
  Ducksalad plant response rating: 0
Duck salad; [11]
  Ducksalad plant response rating: 0
Duck salad; [12]
  Ducksalad plant response rating: 0
Duck salad; [13]
  Plant response rating, Ducksalad: 0
bamyardgrass; [10]
  Barnyardgrass plant response rating: 0
bamyardgrass; [11]
  Barnyardgrass plant response rating: 0
bamyardgrass; [12]
  Barnyardgrass plant response rating: 0
bamyardgrass; [13]
  Plant response rating, Barnyardgrass: 0
Winter wheat [1]; Rate 125 g/ha
  Plant response rating, Wheat (winter): 30
Winter wheat [1]; [14]
  Plant response rating, Wheat (winter): 60
blackgrass; [15]
  Plant response rating, Blackgrass: 10
blackgrass
  Blackgrass plant response rating (0 to 100 scale): 20
blackgrass; [16]
  Plant response rating, Blackgrass: 30
Green foxtail; [15]
  Plant response rating, Green foxtail: 30
Green foxtail
  Green foxtail plant response rating (0 to 100 scale): 40
Green foxtail; [16]
  Plant response rating, Green foxtail: 50
Italian ryegrass; [15]
  Plant response rating, I. Ryegrass: 0
Italian ryegrass
  I. Ryegrass plant response rating (0 to 100 scale): 0
Italian ryegrass; [16]
  Plant response rating, I. Ryegrass: 30
Winter wheat [2]; [15]
  Plant response rating, Wheat (winter): 10
Winter wheat [2]
  Wheat (winter) plant response rating (0 to 100 scale): 30
Winter wheat [2]; [16]
  Plant response rating, Wheat (winter): 50
Wild oat; [15]
  Plant response rating, Wild oat: 30
Wild oat
  Wild oat plant response rating (0 to 100 scale): 40
Wild oat; [16]
  Plant response rating, Wild oat: 50
Winter barley; [15]
  Plant response rating, Barley (winter): 10
Winter barley
  Barley (winter) plant response rating (0 to 100 scale): 30
Winter barley; [16]
  Plant response rating, Barley (winter): 20

## CC(C)N(C(=O)n1oc(=O)n(Cc2ccco2)c1=O)c1ccc(F)cc1 [Compound 207]
crabgrass; [3]
  Crabgrass plant response rating: 0
crabgrass; [4]
  Crabgrass plant response rating (0 to 10 scale): 0
crabgrass; [5]
  Crabgrass plant response rating: 3
crabgrass; [17]
  Plant response rating, Crabgrass: 4
crabgrass; [7]
  Crabgrass plant response rating: 0
crabgrass; [8]
  Crabgrass plant response rating: 0
crabgrass; Rate 250 g/ha, Postemergence
  Plant response rating (0 to 10; 0 is no effect, 10 is complete control), Crabgrass: 2
crabgrass; [9]
  Crabgrass plant response rating: 3
Purple nutsedge; [3]
  Nutsedge plant response rating: 0
Purple nutsedge; [4]
  Nutsedge plant response rating (0 to 10 scale): 0
Purple nutsedge; [5]
  Nutsedge plant response rating: 0
Purple nutsedge; [17]
  Plant response rating, Nutsedge: 0
Purple nutsedge; [7]
  Nutsedge plant response rating: 0
Purple nutsedge; [8]
  Nutsedge plant response rating: 0
Purple nutsedge; Rate 250 g/ha, Postemergence
  Plant response rating (0 to 10; 0 is no effect, 10 is complete control), Nutsedge: 0
Purple nutsedge; [9]
  Nutsedge plant response rating: 0
Duck salad; [10]
  Ducksalad plant response rating: 0
Duck salad; [11]
  Ducksalad plant response rating: 0
Duck salad; [12]
  Ducksalad plant response rating: 0
Duck salad; [18]
  Ducksalad plant response rating: 2
bamyardgrass; [10]
  Barnyardgrass plant response rating: 0
bamyardgrass; [11]
  Barnyardgrass plant response rating: 0
bamyardgrass; [12]
  Barnyardgrass plant response rating: 2
bamyardgrass; [18]
  Barnyardgrass plant response rating: 7
Winter wheat [1]; Rate 1000 g/ha, 0 is no effect and 100 is complete control
  Plant response rating, Wheat (winter): 50
Winter wheat [1]; [14]
  Plant response rating, Wheat (winter): 30
blackgrass
  Blackgrass plant response rating (0 to 100 scale): 30
blackgrass; [16]
  Plant response rating, Blackgrass: 80
blackgrass; [19]
  Plant response rating, Blackgrass: 85
Green foxtail
  Green foxtail plant response rating (0 to 100 scale): 80
Green foxtail; [16]
  Plant response rating, Green foxtail: 90
Green foxtail; [19]
  Plant response rating, Green foxtail: 100
Italian ryegrass
  I. Ryegrass plant response rating (0 to 100 scale): 40
Italian ryegrass; [16]
  Plant response rating, I. Ryegrass: 55
Italian ryegrass; [19]
  Plant response rating, I. Ryegrass: 30
Winter wheat [2]
  Wheat (winter) plant response rating (0 to 100 scale): 60
Winter wheat [2]; [16]
  Plant response rating, Wheat (winter): 70
Winter wheat [2]; [19]
  Plant response rating, Wheat (winter): 70
Wild oat
  Wild oat plant response rating (0 to 100 scale): 65
Wild oat; [16]
  Plant response rating, Wild oat: 70
Wild oat; [19]
  Plant response rating, Wild oat: 70
Winter barley
  Barley (winter) plant response rating (0 to 100 scale): 65
Winter barley; [16]
  Plant response rating, Barley (winter): 70
Winter barley; [19]
  Plant response rating, Barley (winter): 80
